In ChEMBL document CHEMBL1909046, “DrugMatrix in vitro pharmacology data”:

Assays:
[1] = molecular target: Mitogen-activated protein kinase 14 (Homo sapiens, UniProt Q16539); parameters: species or system Escherichia coli;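 also: inhibition of p38alpha enzyme activity in a biochemical kinase assay, with myelin basic protein serving as substrate; in other assays of this panel Not Active means under 50% inhibition at 10 µM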
[2] = molecular target: T1, Angiotensin-converting enzyme (Oryctolagus cuniculus, UniProt P12822); format: tissue-based, Lung;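 also: enzymatic inhibition of angiotensin-converting enzyme measured with FAPGG as the substrate; in other assays of this panel Not Active means under 50% inhibition at 10 µM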
T1 sequence (P12822 whole entry): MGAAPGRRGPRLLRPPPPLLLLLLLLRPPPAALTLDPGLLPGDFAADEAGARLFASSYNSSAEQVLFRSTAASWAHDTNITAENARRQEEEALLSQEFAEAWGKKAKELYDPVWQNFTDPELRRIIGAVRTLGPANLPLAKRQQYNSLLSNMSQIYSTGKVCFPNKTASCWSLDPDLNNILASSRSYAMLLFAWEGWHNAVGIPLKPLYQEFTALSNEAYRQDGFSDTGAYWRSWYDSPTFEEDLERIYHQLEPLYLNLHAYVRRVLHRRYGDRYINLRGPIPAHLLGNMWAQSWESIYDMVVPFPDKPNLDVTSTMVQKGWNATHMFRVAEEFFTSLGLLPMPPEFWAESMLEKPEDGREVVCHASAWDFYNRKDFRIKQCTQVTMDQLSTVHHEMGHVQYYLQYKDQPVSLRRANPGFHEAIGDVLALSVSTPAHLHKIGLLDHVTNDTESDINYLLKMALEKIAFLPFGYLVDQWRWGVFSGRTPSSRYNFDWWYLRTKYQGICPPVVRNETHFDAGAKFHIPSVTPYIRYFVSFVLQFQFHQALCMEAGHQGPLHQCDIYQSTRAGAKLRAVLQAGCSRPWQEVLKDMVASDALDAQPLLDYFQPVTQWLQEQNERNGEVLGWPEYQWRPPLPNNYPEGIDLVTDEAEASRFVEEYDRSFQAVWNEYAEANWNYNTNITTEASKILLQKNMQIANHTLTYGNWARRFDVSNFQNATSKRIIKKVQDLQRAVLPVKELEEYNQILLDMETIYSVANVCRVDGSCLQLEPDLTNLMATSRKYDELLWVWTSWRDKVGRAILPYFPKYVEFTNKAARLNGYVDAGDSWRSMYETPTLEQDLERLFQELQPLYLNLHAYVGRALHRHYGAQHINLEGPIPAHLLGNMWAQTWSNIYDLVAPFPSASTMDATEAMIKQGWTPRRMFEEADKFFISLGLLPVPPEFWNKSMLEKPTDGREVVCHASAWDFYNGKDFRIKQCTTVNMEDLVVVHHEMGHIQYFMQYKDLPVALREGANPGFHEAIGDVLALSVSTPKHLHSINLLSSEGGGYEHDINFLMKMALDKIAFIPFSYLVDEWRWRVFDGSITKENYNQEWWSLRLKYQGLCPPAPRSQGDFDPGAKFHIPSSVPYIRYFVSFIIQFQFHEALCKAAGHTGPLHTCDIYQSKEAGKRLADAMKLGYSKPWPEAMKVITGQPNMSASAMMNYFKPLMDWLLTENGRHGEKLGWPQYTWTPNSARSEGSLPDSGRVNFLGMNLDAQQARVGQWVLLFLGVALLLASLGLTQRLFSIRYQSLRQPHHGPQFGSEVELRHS

[3] = molecular target: T2, 5-hydroxytryptamine receptor 2C (Homo sapiens, UniProt P28335); experiment: DRUGMATRIX: Serotonin (5-Hydroxytryptamine) 5-HT2C radioligand binding (ligand: [3H] Mesulergine); format: cell membranes, CHO-K1, Membrane; conditions: Not Active = under 50% inhibition at 10 µM; for Ki: read-out: Ki
T2 sequence (P28335 whole entry): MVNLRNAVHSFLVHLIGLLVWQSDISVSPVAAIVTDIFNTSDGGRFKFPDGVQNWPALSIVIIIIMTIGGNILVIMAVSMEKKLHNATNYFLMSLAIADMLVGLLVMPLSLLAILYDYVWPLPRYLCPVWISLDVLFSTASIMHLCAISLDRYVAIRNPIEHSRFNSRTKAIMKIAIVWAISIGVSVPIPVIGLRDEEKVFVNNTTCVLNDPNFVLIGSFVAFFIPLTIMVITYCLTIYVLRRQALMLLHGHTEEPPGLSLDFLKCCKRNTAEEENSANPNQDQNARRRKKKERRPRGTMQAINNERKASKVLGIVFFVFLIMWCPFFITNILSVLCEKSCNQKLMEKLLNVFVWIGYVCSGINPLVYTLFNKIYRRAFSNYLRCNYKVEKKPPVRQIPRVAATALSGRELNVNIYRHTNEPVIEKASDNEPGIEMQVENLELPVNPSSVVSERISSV

[4] = molecular target: Mitogen-activated protein kinase 3 (Homo sapiens, UniProt P27361); experiment: DRUGMATRIX: Protein Serine/Threonine Kinase, ERK1 enzyme inhibition (substrate: Myelin Basic Protein); parameters: species or system Escherichia coli; conditions: Not Active = under 50% inhibition at 10 µM
[5] = DRUGMATRIX: Glutamate, Kainate radioligand binding (ligand: [3H] Kainic acid); format: cell membranes, Rattus norvegicus, Wistar, Brain, Membrane; conditions: Not Active = under 50% inhibition at 10 µM
Melanocortin receptor 3 = Melanocortin receptor 3 (Homo sapiens, UniProt P41968); format: cell membranes, HEK293, Membrane; conditions: hek293; also: in other assays of this panel Not Active means under 50% inhibition at 10 µM
[6] = molecular target: T3, 3-hydroxy-3-methylglutaryl-coenzyme A reductase (Homo sapiens, UniProt P04035); parameters: species or system Escherichia coli;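 also: enzyme inhibition assay of HMG-CoA reductase using radiolabeled [14C]HMG-CoA as substrate; in other assays of this panel Not Active means under 50% inhibition at 10 µM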
T3 sequence (P04035 whole entry): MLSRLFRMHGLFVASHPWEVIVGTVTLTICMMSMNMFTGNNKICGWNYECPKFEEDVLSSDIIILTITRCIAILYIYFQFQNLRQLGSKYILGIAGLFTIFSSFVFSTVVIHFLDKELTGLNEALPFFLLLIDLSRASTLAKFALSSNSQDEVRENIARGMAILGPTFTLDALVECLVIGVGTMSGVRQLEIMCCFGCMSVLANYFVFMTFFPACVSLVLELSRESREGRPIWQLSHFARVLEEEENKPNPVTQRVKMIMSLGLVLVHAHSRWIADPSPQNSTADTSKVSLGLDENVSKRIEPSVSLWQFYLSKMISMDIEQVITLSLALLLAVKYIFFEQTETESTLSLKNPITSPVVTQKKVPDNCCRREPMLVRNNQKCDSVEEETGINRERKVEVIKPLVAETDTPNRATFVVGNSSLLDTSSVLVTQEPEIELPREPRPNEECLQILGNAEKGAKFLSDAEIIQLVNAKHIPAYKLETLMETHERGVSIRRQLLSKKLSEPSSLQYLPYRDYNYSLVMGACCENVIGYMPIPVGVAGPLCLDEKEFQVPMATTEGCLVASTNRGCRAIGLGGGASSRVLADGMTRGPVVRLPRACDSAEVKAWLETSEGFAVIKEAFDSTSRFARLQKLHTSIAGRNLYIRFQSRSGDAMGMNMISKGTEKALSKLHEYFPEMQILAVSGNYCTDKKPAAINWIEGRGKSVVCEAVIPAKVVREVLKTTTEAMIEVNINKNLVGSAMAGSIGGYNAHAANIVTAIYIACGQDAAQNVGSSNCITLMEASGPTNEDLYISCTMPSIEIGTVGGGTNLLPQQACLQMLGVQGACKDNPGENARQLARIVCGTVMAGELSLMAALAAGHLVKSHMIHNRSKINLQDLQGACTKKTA

Sequence of Mitogen-activated protein kinase 3 (P27361 whole entry): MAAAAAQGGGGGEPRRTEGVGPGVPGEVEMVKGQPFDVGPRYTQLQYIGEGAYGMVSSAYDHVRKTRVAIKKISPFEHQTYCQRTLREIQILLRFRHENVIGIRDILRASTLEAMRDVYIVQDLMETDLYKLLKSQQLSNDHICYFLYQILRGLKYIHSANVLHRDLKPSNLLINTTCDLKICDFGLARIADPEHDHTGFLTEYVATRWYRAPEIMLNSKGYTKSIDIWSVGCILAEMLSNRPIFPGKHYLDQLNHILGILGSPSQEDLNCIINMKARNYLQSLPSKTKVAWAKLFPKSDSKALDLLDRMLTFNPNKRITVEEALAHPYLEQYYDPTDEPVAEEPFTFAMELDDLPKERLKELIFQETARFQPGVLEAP
Sequence of Mitogen-activated protein kinase 14 (Q16539 whole entry): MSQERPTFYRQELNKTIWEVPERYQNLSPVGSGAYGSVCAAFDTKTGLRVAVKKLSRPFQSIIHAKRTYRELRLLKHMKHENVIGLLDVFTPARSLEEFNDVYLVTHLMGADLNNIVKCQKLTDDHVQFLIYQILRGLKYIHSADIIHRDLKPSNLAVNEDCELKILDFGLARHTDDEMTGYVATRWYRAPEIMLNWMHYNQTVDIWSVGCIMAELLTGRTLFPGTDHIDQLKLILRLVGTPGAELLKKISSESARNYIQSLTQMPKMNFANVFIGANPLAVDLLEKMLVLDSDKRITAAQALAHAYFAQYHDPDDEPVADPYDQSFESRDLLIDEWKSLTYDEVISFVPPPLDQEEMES
Sequence of Melanocortin receptor 3 (P41968 whole entry): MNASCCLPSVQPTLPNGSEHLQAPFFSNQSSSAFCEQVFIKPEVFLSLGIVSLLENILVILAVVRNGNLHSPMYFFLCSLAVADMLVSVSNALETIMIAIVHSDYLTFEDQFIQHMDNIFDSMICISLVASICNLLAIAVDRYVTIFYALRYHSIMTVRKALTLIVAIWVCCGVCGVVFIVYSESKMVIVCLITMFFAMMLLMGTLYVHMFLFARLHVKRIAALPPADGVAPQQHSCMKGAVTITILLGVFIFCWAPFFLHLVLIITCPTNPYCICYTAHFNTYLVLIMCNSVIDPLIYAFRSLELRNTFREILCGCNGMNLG

NNc1nncc2ccccc12 [HYDRALAZINE]
IC50 [1]: Not Active
IC50 [2]: Not Active
IC50 ([3]; cho-k1): Not Active
IC50 [4]: Not Active
IC50 [5]: Not Active
Ki [5]: Not Active
IC50 (Melanocortin receptor 3): Not Active
IC50 [6]: Not Active

O=c1cnn([C@@H]2O[C@H](CO)[C@@H](O)[C@H]2O)c(=O)[nH]1 [6-AZAURIDINE]
IC50 [1]: Not Active
IC50 [2]: Not Active
IC50 ([3]; cho-k1): Not Active
IC50 [4]: Not Active
IC50 [5]: Not Active
Ki [5]: Not Active
IC50 (Melanocortin receptor 3): Not Active
IC50 [6]: Not Active

Cn1c(=O)c2c(ncn2CC(O)CO)n(C)c1=O (stereo unspecified) [DYPHYLLINE]
IC50 [1]: Not Active
IC50 [2]: Not Active
IC50 ([3]; cho-k1): Not Active
IC50 [4]: Not Active
IC50 [5]: Not Active
Ki [5]: Not Active
IC50 (Melanocortin receptor 3): Not Active
IC50 [6]: Not Active

O=c1cc(N2CCOCC2)oc2c(-c3ccccc3)cccc12 [LY-294002]
IC50 [1]: Not Active
IC50 [2]: Not Active
IC50 ([3]; read-out: IC50): 1000 nM
Ki [3]: 525 nM
IC50 [4]: Not Active
IC50 [5]: Not Active
Ki [5]: Not Active
IC50 (Melanocortin receptor 3): Not Active
IC50 [6]: Not Active

C[C@@H]1C[C@H]2[C@@H]3CCC4=CC(=O)C=C[C@]4(C)[C@@]3(F)[C@@H](O)C[C@]2(C)[C@H]1C(=O)CO [DESOXIMETASONE]
IC50 [1]: Not Active
IC50 [2]: Not Active
IC50 ([3]; cho-k1): Not Active
IC50 [4]: Not Active
IC50 [5]: Not Active
Ki [5]: Not Active
IC50 (Melanocortin receptor 3): Not Active
IC50 [6]: Not Active

CC(C)(C)NC(=O)[C@H]1CC[C@H]2[C@@H]3CC[C@H]4NC(=O)C=C[C@]4(C)[C@H]3CC[C@]12C [FINASTERIDE]
IC50 [1]: Not Active
IC50 [2]: Not Active
IC50 ([3]; cho-k1): Not Active
IC50 [4]: Not Active
IC50 [5]: Not Active
Ki [5]: Not Active
IC50 (Melanocortin receptor 3): Not Active
IC50 [6]: Not Active

CCn1cc(C(=O)O)c(=O)c2cnc(N3CCCC3)nc21 [PIROMIDIC ACID]
IC50 [1]: Not Active
IC50 [2]: Not Active
IC50 ([3]; cho-k1): Not Active
IC50 [4]: Not Active
IC50 [5]: Not Active
Ki [5]: Not Active
IC50 (Melanocortin receptor 3): Not Active
IC50 [6]: Not Active

CC1(C)S[C@@H]2[C@H](NC(=O)[C@H](N)c3ccccc3)C(=O)N2[C@H]1C(=O)O [AMPICILLIN]
IC50 [1]: Not Active
IC50 [2]: Not Active
IC50 ([3]; cho-k1): Not Active
IC50 [4]: Not Active
IC50 [5]: Not Active
Ki [5]: Not Active
IC50 (Melanocortin receptor 3): Not Active
IC50 [6]: Not Active

CCN(CC)CCOCCC1=CCC2CC1C2(C)C (stereo unspecified) [MYRTECAINE]
IC50 [1]: Not Active
IC50 [2]: Not Active
IC50 ([3]; cho-k1): Not Active
IC50 [4]: Not Active
IC50 [5]: Not Active
Ki [5]: Not Active
IC50 (Melanocortin receptor 3): Not Active
IC50 [6]: Not Active

COC(=O)Nc1nc2ccc([S+]([O-])c3ccccc3)cc2[nH]1 (stereo unspecified) [OXFENDAZOLE]
IC50 [1]: Not Active
IC50 [2]: Not Active
IC50 ([3]; cho-k1): Not Active
IC50 [4]: Not Active
IC50 [5]: Not Active
Ki [5]: Not Active
IC50 (Melanocortin receptor 3): Not Active
IC50 [6]: Not Active

CC(=O)[C@@]1(O)CC[C@H]2[C@@H]3CCC4=CC(=O)CC[C@]4(C)[C@H]3CC[C@@]21C [HYDROXYPROGESTERONE]
IC50 [1]: Not Active
IC50 [2]: Not Active
IC50 ([3]; cho-k1): Not Active
IC50 ([4]; read-out: IC50): 3160 nM
IC50 [5]: Not Active
Ki [5]: Not Active
IC50 (Melanocortin receptor 3): Not Active
IC50 [6]: Not Active

Oc1c(Cl)cc(Cl)c(Cl)c1Cc1c(O)c(Cl)cc(Cl)c1Cl [HEXACHLOROPHENE]
IC50 ([1]; read-out: IC50): 87.6 nM
IC50 [2]: Not Active
IC50 ([3]; read-out: IC50): 4600 nM
Ki [3]: 2410 nM
IC50 ([4]; read-out: IC50): 2480 nM
IC50 [5]: Not Active
Ki [5]: Not Active
IC50 (Melanocortin receptor 3): Not Active
IC50 [6]: Not Active

COC1=C(OC)C(=O)C(CCCCCCCCCCO)=C(C)C1=O [IDEBENONE]
IC50 [1]: Not Active
IC50 [2]: Not Active
IC50 ([3]; cho-k1): Not Active
IC50 [4]: Not Active
IC50 [5]: Not Active
Ki [5]: Not Active
IC50 (Melanocortin receptor 3): Not Active
IC50 [6]: Not Active
